Experimental data as given in patent US11919902B2, “Aryl-bipyridine amine derivatives as phosphatidylinositol phosphate kinase inhibitors” (HiberCell, Inc., priority 2017, dated 2024).

Tests used:
[1] = target: T1, PIP4K2A (full length protein, SignalChem) (Homo sapiens, UniProt P48426); assay: Kinase Assay PIP4K2 A (Sprint); ADP-Glo biochemical assay; settings: Table 2; compounds listed under IC50 range headings
T1 construct: 4 nM PIP4K2A (full length protein, SignalChem); purchased SignalChem
T1 sequence (P48426 1-406): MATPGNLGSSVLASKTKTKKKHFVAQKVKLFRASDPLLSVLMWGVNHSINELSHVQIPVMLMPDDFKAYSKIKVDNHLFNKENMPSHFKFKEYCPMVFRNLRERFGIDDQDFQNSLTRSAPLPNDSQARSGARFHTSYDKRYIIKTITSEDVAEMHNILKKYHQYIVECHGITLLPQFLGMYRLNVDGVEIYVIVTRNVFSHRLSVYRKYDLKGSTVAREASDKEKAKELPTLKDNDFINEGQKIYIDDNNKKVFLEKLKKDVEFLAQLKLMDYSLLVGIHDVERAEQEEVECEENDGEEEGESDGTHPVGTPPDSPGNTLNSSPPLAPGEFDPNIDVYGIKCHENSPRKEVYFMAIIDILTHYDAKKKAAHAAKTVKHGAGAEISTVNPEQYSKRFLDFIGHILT
In short: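 Compounds (10-point, 3-fold dilutions) were pre-incubated 15 min at RT with an enzyme/substrate mix of 4 nM full-length PIP4K2A and 100 μM PI(5)P diC8 in 20 mM MOPS pH 7.2, 25 mM MgCl2, 0.005% Tween 20. A 60 μM ATP solution was added, reaction 1 h RT; ADP read by ADP-Glo luminescence, IC50 fitted from % inhibition vs DMSO.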

GST tagged PIP4KtypeIIB = target: T2, GST tagged PIP4KtypeIIB (Homo sapiens, UniProt P78356); assay: Trans-FI P kinase assay PIP4K2B (PIP4KtypeIIB inhibition assay); type: biochemical; settings: Table 4; compounds listed under IC50 range headings; 100 uM GTP, 5 nM PIP4KIIB; read-out: Trans-FI P kinase assays: PIP4K2B IC50
T2 construct: made in house; host or cells: E. coli
T2 sequence (P78356 1-416): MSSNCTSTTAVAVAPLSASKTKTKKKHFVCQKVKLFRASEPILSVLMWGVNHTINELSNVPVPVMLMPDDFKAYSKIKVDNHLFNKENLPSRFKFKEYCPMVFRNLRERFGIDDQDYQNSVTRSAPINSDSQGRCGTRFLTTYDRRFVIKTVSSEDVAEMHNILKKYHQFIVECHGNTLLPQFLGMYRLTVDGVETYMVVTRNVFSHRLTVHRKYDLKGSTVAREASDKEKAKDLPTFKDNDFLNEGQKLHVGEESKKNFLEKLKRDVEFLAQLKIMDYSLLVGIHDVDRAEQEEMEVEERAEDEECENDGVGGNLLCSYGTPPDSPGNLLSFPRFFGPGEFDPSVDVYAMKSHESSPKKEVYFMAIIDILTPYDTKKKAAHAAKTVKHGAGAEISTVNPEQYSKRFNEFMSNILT
In short: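 Purified GST-PIP4KIIB (5 nM final), 1 h preincubation with compound at 27 C, then 2 h reaction with 100 uM GTP and 80 uM PI5P plus DOPE carrier lipid in pH 7.3 HEPES/MgCl2/Triton buffer with 5% DMSO. GDP read by Transcreener FI fluorescence against a calibration curve; IC50 from % no-inhibitor activity vs log concentration.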

Question: For `CN(C(=O)c1cc2c(-c3cncc(-c4ccc(N5CCCC5=O)cc4)c3)ccnc2[nH]1)c1ccccc1` [Example 311, N-methyl-4-(5-(4-(2-oxopyrrolidin-1-yl)phenyl)pyridin-3-yl)-N-phenyl-1H-pyrrolo[2,3-b]pyridine-2-carboxamide], which IC50 [1] is on record?
Answer: 1000 to 2500 nM

Question: And the IC50 (GST tagged PIP4KtypeIIB)?
Answer: 100 to 1000 nM

Question: What does the source list for `Cc1c[nH]c2nccc(-c3cc(-c4ccc(N5CCCC5=O)cc4)cnc3N)c12` [Example 316, 1-(4-(6-amino-5-(3-methyl-1H-pyrrolo[2,3-b]pyridin-4-yl)pyridin-3-yl)phenyl)pyrrolidin-2-one]?
Answer: IC50 [1]: 1000 to 2500 nM; IC50 (GST tagged PIP4KtypeIIB): 10 to 100 nM

Question: What does the source list for `CCn1cnnc1-c1ccc(-c2cncc(-c3ccnc4c3cc3n4CCN(C)C3=O)c2)cc1` [Example 358, 4-(5-(4-(4-ethyl-4H-1,2,4-triazol-3-yl)phenyl)pyridin-3-yl)-7-methyl-8,9-dihydropyrido[3′,2′:4,5]pyrrolo[1,2-a]pyrazin-6(7H)-one]?
Answer: IC50 [1]: 100 to 1000 nM; IC50 (GST tagged PIP4KtypeIIB): 1 to 10 nM

Question: For `Cc1cc2nc(CNC(=O)c3cc4c(-c5cncc(-c6ccc(N7CCCC7=O)cc6)c5)ccnc4[nH]3)[nH]c2cc1C` [Example 315, N-((5,6-dimethyl-1H-benzo[d]imidazol-2-yl)methyl)-4-(5-(4-(2-oxopyrrolidin-1-yl)phenyl)pyridin-3-yl)-1H-pyrrolo[2,3-b]pyridine-2-carboxamide], which IC50 [1] is on record?
Answer: 1000 to 2500 nM

Question: What about the IC50 (GST tagged PIP4KtypeIIB) of the same molecule?
Answer: 100 to 1000 nM

Question: For `C[C@@H]1C[C@@H](C(C)(C)O)N(C(=O)c2cc3c(-c4cncc(-c5ccc(N6CCCC6=O)cc5)c4)ccnc3[nH]2)C1` [Example 397], which IC50 [1] is on record?
Answer: 100 to 1000 nM

Question: What about the IC50 (GST tagged PIP4KtypeIIB) of the same molecule?
Answer: 100 to 1000 nM

Question: Which results are given for `CC(C)n1cnnc1-c1ccc(-c2cc(-c3ccnc4c3cc3n4CCN(CC4CC4)C3=O)cnc2N)cc1` [Example 374, 4-(6-amino-5-(4-(4-isopropyl-4H-1,2,4-triazol-3-yl)phenyl)pyridin-3-yl)-7-(cyclopropylmethyl)-8,9-dihydropyrido[3′,2′:4,5]pyrrolo[1,2-a]pyrazin-6(7H)-one]?
Answer: IC50 [1]: 100 to 1000 nM; IC50 (GST tagged PIP4KtypeIIB): 1 to 10 nM

Question: For `CN1CCn2c(cc3c(-c4cncc(-c5ccc(-c6nncn6CCC6CC6)cc5)c4)ccnc32)C1=O` [Example 369], which IC50 [1] is on record?
Answer: 100 to 1000 nM

Question: What about the IC50 (GST tagged PIP4KtypeIIB) of the same molecule?
Answer: 10 to 100 nM

Question: How did the IC50 [1] turn out when `CC(C)n1ccnc1-c1ccc(-c2cncc(-c3ccnc4c3cc3n4CCN(C)C3=O)c2)cc1` [Example 364, 4-(5-(4-(1-isopropyl-1H-imidazol-2-yl)phenyl)pyridin-3-yl)-7-methyl-8,9-dihydropyrido[3′,2′:4,5]pyrrolo[1,2-a]pyrazin-6(7H)-one] was run?
Answer: < 5000 nM

Question: What about the IC50 (GST tagged PIP4KtypeIIB) of the same molecule?
Answer: 1000 to 2500 nM

Question: With `CNC(=O)c1cc2c(-c3cnc(N)c(-c4ccc(-c5nncn5CC(C)C)cc4)c3)ccnc2o1` [Example 366, 4-(6-amino-5-(4-(4-isobutyl-4H-1,2,4-triazol-3-yl)phenyl)pyridin-3-yl)-N-methylfuro[2,3-b]pyridine-2-carboxamide] as the molecule, how does the IC50 [1] read?
Answer: 5 to 100 nM

Question: And the IC50 (GST tagged PIP4KtypeIIB)?
Answer: 10 to 100 nM

Question: Which results are given for `CC(C)n1cnnc1-c1ccc(-c2cncc(-c3ccnc4[nH]c(C(=O)NCc5cccnc5)cc34)c2)cc1` [Example 378, 4-(5-(4-(4-isopropyl-4H-1,2,4-triazol-3-yl)phenyl)pyridin-3-yl)-N-(pyridin-3-ylmethyl)-1H-pyrrolo[2,3-b]pyridine-2-carboxamide]?
Answer: IC50 [1]: 100 to 1000 nM; IC50 (GST tagged PIP4KtypeIIB): 10 to 100 nM

Question: For `Cc1ccc2c(c1)N(C(=O)c1cc3c(-c4cncc(-c5ccc(N6CCCC6=O)cc5)c4)ccnc3[nH]1)CCO2` [Example 325, 1-(4-(5-(2-(6-methyl-3,4-dihydro-2H-benzo[b][1,4]oxazine-4-carbonyl)-1H-pyrrolo[2,3-b]pyridin-4-yl)pyridin-3-yl)phenyl)pyrrolidin-2-one], which IC50 [1] is on record?
Answer: 5 to 100 nM

Question: And the IC50 (GST tagged PIP4KtypeIIB)?
Answer: 100 to 1000 nM

Question: `O=C(NCc1nc2ccccc2s1)c1cc2c(-c3cncc(-c4ccc(N5CCCC5=O)cc4)c3)ccnc2[nH]1` [Example 319, N-(benzo[d]thiazol-2-ylmethyl)-4-(5-(4-(2-oxopyrrolidin-1-yl)phenyl)pyridin-3-yl)-1H-pyrrolo[2,3-b]pyridine-2-carboxamide] was tested. Which IC50 [1] did it give?
Answer: 100 to 1000 nM

Question: What about the IC50 (GST tagged PIP4KtypeIIB) of the same molecule?
Answer: 10 to 100 nM

Question: Which results are given for `Cc1c[nH]c2nccc(-c3cncc(-c4ccc(N5CCCC5=O)cc4)c3)c12` [Example 323, 1-(4-(5-(3-methyl-1H-pyrrolo[2,3-b]pyridin-4-yl)pyridin-3-yl)phenyl)pyrrolidin-2-one]?
Answer: IC50 [1]: 1000 to 2500 nM; IC50 (GST tagged PIP4KtypeIIB): 100 to 1000 nM

Question: Which results are given for `CC(C)c1cnnn1-c1ccc(-c2cncc(-c3ccnc4c3cc3n4CCN(C)C3=O)c2)cc1` [Example 368, 4-(5-(4-(5-isopropyl-1H-1,2,3-triazol-1-yl)phenyl)pyridin-3-yl)-7-methyl-8,9-dihydropyrido[3′,2′:4,5]pyrrolo[1,2-a]pyrazin-6(7H)-one]?
Answer: IC50 [1]: 5 to 100 nM; IC50 (GST tagged PIP4KtypeIIB): 1 to 10 nM

Question: How did the IC50 [1] turn out when `O=C(Nc1ccccn1)c1cc2c(-c3cncc(-c4ccc(N5CCCC5=O)cc4)c3)ccnc2[nH]1` [Example 312, 4-(5-(4-(2-oxopyrrolidin-1-yl)phenyl)pyridin-3-yl)-N-(pyridin-2-yl)-1H-pyrrolo[2,3-b]pyridine-2-carboxamide] was run?
Answer: 1000 to 2500 nM

Question: What about the IC50 (GST tagged PIP4KtypeIIB) of the same molecule?
Answer: 10 to 100 nM

Question: For `Cc1noc2nccc(-c3cncc(-c4ccc(N5CCCC5=O)cc4)c3)c12` [Example 307, 1-(4-(5-(3-methylisoxazolo[5,4-b]pyridin-4-yl)pyridin-3-yl)phenyl)pyrrolidin-2-one], which IC50 [1] is on record?
Answer: 1000 to 2500 nM

Question: What about the IC50 (GST tagged PIP4KtypeIIB) of the same molecule?
Answer: 100 to 1000 nM

Question: For `CC[C@@H](C)n1cnnc1-c1ccc(-c2cncc(-c3ccnc4c3cc3n4CCN(C)C3=O)c2)cc1` [Example 361, (R)-4-(5-(4-(4-(sec-butyl)-4H-1,2,4-triazol-3-yl)phenyl)pyridin-3-yl)-7-methyl-8,9-dihydropyrido[3′,2′:4,5]pyrrolo[1,2-a]pyrazin-6(7H)-one], which IC50 [1] is on record?
Answer: 100 to 1000 nM

Question: And the IC50 (GST tagged PIP4KtypeIIB)?
Answer: 10 to 100 nM

Question: For `Cc1c[nH]c2nccc(-c3cnc(N)c(-c4ccc(N5CCCC5=O)cc4)c3)c12` [Example 309, 1-(4-(2-amino-5-(3-methyl-1H-pyrrolo[2,3-b]pyridin-4-yl)pyridin-3-yl)phenyl)pyrrolidin-2-one], which IC50 [1] is on record?
Answer: 100 to 1000 nM

Question: What about the IC50 (GST tagged PIP4KtypeIIB) of the same molecule?
Answer: 10 to 100 nM

Question: Which results are given for `O=C(Nc1ccccc1)c1cc2c(-c3cncc(-c4ccc(N5CCCC5=O)cc4)c3)ccnc2[nH]1` [Example 329, 4-(5-(4-(2-oxopyrrolidin-1-yl)phenyl)pyridin-3-yl)-N-phenyl-1H-pyrrolo[2,3-b]pyridine-2-carboxamide]?
Answer: IC50 [1]: 2500 to 5000 nM; IC50 (GST tagged PIP4KtypeIIB): 10 to 100 nM

Question: Which results are given for `Cc1ccc2c(c1)OCCN2C(=O)c1cc2c(-c3cncc(-c4ccc(N5CCCC5=O)cc4)c3)ccnc2[nH]1` [Example 339, 1-(4-(5-(2-(7-methyl-3,4-dihydro-2H-benzo[b][1,4]oxazine-4-carbonyl)-1H-pyrrolo[2,3-b]pyridin-4-yl)pyridin-3-yl)phenyl)pyrrolidin-2-one]?
Answer: IC50 [1]: 100 to 1000 nM; IC50 (GST tagged PIP4KtypeIIB): 100 to 1000 nM

Question: What does the source list for `Cn1cc(-c2ccc(N)nc2)c2cc(-c3cncc(-c4ccc(N5CCCC5=O)cc4)c3)cnc21` [Example 347, 1-(4-(5-(3-(6-aminopyridin-3-yl)-1-methyl-1H-pyrrolo[2,3-b]pyridin-5-yl)pyridin-3-yl)phenyl)pyrrolidin-2-one]?
Answer: IC50 [1]: 100 to 1000 nM; IC50 (GST tagged PIP4KtypeIIB): 100 to 1000 nM

Question: How did the IC50 [1] turn out when `CC(C)n1cncc1-c1ccc(-c2cncc(-c3ccnc4c3cc3n4CCN(C)C3=O)c2)cc1` [Example 359, 4-(5-(4-(1-isopropyl-1H-imidazol-5-yl)phenyl)pyridin-3-yl)-7-methyl-8,9-dihydropyrido[3′,2′:4,5]pyrrolo[1,2-a]pyrazin-6(7H)-one] was run?
Answer: 100 to 1000 nM

Question: And the IC50 (GST tagged PIP4KtypeIIB)?
Answer: 100 to 1000 nM

Question: What does the source list for `CC(C)Cn1cnnc1-c1ccc(-c2cncc(-c3ccnc4[nH]c(C(=O)NCCc5ccncc5)cc34)c2)cc1` [Example 396, 4-(5-(4-(4-isobutyl-4H-1,2,4-triazol-3-yl)phenyl)pyridin-3-yl)-N-(2-(pyridin-4-yl)ethyl)-1H-pyrrolo[2,3-b]pyridine-2-carboxamide]?
Answer: IC50 [1]: 1000 to 2500 nM; IC50 (GST tagged PIP4KtypeIIB): 10 to 100 nM

Question: How did the IC50 [1] turn out when `CC(C)c1conc1-c1ccc(-c2cncc(-c3ccnc4c3cc3n4CCN(C)C3=O)c2)cc1` [Example 375, 4-(5-(4-(4-isopropylisoxazol-3-yl)phenyl)pyridin-3-yl)-7-methyl-8,9-dihydropyrido[3′,2′:4,5]pyrrolo[1,2-a]pyrazin-6(7H)-one] was run?
Answer: 100 to 1000 nM

Question: What about the IC50 (GST tagged PIP4KtypeIIB) of the same molecule?
Answer: 10 to 100 nM
